Columns and labels:
GLO1 = biological target: T1, GLO1 (Mus musculus, UniProt Q9CPU0); assay: HPLC measurement of MG concentration in whole brain after i.p. BrBzGCp2; format: in vivo; settings: BrBzGCp2 30 mg/kg i.p., two hours
T1 construct: from tissue; host or cells: whole brain of WT C57BL/6J mice, in vivo dosing
Method: MG concentration was measured by HPLC as previously described with modifications (Dhar 2009). Tissue was homogenized in 50 mM sodium phosphate buffer (pH 6.6) and 0.8N perchloric acid. It was then incubated on ice for 10 minutes and centrifuged. The supernatant was filtered, and MG was derivatized with 10 mM o-phenylenediamine to form 2-methylquinoxaline (2-MQ). 5-methylquinoxaline (5-MQ, 15 μM) was spiked into each sample as an internal standard. 2-MQ was quantified using an HP 1100 HPLC system (Agilent) with a Nova-Pak C18 column (Waters Corporation). Column effluent was monitored at 315 nm. 2-MQ concentration was determined by comparison to 2-MQ standards of known mass. Quantification of 2-MQ was corrected for losses by comparison with 5-MQ. MG concentration was calculated as 2-MQ/tissue weight.
Treatment: BrBzGCp2 was dissolved in vehicle (8% DMSO and 18% Tween-80). Mice were treated i.p. with 10 ml/kg BrBzGCp2 or vehicle.
HPLC: 2 hours post-injection, mice were sacrificed, and brains were rapidly dissected and flash-frozen on dry ice. MG concentration was measured as described above.

[1] = test system: depression-like behavior in mice; assay: Chronic forced swim test (cFST), osmotic minipump; format: in vivo, mouse; settings: 14 days
Method: To fully assess the therapeutic potential of GLO1 inhibitors, it is necessary to utilize behavioral models sensitive to chronic administration. These models are highly informative as the therapeutic onset of antidepressant action mimics clinical onset in humans. pBBG was administered by osmotic minipumps (Alzet) for 14 days at various doses (0, 5, 10, 15, 30 and 60 mg/kg/day) to establish a dose response curve. Osmotic minipumps are ideal for chronic treatment as they release a constant volume at a very slow rate minimizing the stress of multiple injections.

[2] = test system: anxiety-like behavior and locomotion in mice; assay: Open field (OF) test; format: in vivo, mouse; settings: 14 days
mice [3] = assay: Observation of sedation or gross deficits in treated mice; settings: mice treated with BrBzGCp2
[4] = test system: pilocarpine-induced seizures; assay: Pilocarpine-induced seizures; format: in vivo, mouse
Method: Drug administration: All experiments with MG utilized crude MG obtained from Sigma-Aldrich. For pre-treatment, MG (50 or 200 mg/kg) or vehicle (0.9% saline) was administered by i.p. injection 10 minutes before the seizure-inducing agent. For treatment after seizure onset, MG (200 mg/kg) or vehicle (0.9% saline) was administered by i.p. injection ten minutes after seizure onset. For GLO1 inhibition, BrBzGCp2 (50 mg/kg) or vehicle (8% DMSO and 18% Tween-80) was administered by i.p. injection two hours before seizure induction.
Seizure induction: For picrotoxin-induced seizures, 5 mg/kg of picrotoxin in 0.9% saline was administered by i.p. injection. Seizures were scored for one hour after picrotoxin administration. For pilocarpine-induced seizures, mice were pre-treated with atropine (5 mg/kg in 0.9% saline) by i.p. injection in order to reduce the peripheral effects of pilocarpine. Thirty minutes after atropine administration, pilocarpine was administered by i.p. injection. B6 mice were treated with 250 mg/kg pilocarpine in 0.9% saline, and FVB mice (WT and Tg) were treated with 300 mg/kg pilocarpine in 0.9% saline. Seizures were scored for 90 minutes after pilocarpine administration.
Pilocarpine-induced seizures were scored as previously reported (Winawer 2011):
Stage 1: Immobility/Lying Low
Stage 2: Partial (limbic) seizures. Non-continuous twitching/tremor/shaking of tail/head/body/limbs, forelimb and/or tail extension, rigid posture, repetitive movements, head bobbing
Stage 3: Partial status epilepticus. Continuous tremor/clonic seizures of body and tail while retaining posture
Stage 4: Generalized seizures. Rearing/hyperexcitability/running/falling, tonic extension/clonic seizures with loss of posture
Stage 5: Generalized status epilepticus (continuous stage 4 seizures) resulting in death

[5] = test system: anxiety-like behavior and locomotion in mice; assay: Open field (OF) test; format: in vivo, mouse
Method: OF test: Mice were placed into the center of the OF, and activity was monitored for five to ten minutes. The apparatus was illuminated to approximately 40 lux. Data were collected and processed using the manufacturer's software (AccuScan Instruments).
OF test: Ten minutes post-injection, mice were placed into the center of the OF. The apparatus was illuminated to approximately 40 lux. Behavior was measured as described above.
OF test replication studies: Ten to twenty minutes post-injection, mice were tested in the OF for five to ten minutes. In some experiments, behavior was scored as described above. In other experiments, mice were tested in the OF, and behavior was automatically scored by the Noldus Ethovision System. For mice tested in the Noldus system, the apparatus was illuminated to approximately 1,000 lux.
Chronic MG administration: For five days, mice were injected twice daily with vehicle or MG (4 mg/kg). Twelve hours after the final injection, mice were tested in the OF as described above.
Pure MG: Pure MG was obtained from Dr. John Termini at the City of Hope, Duarte, Calif. It was administered at the indicated doses by i.p. injection. Mice were tested as described above.
OF test: Two hours post-injection, mice were tested in the OF test as described above. The center size was 10×10 cm. The apparatus was illuminated to approximately 40 lux.

[6] = test system: depression-like behavior in mice; assay: Tail suspension test (TST); format: in vivo, mouse; settings: pBBG pretreatment
Method: Mice were suspended by their tails using adhesive tape attached to a bar elevated approximately 46 cm above a table. The apparatus was illuminated to approximately 1,000 lux. Mice were tested individually, and time spent immobile was scored manually for six minutes. For MG studies, mice were treated with vehicle (0.9% saline) or crude MG (Sigma-Aldrich, 50 mg/kg) by i.p. injection ten minutes before the test. Behavior was scored for five minutes.

[7] = test system: depression-like behavior in mice; assay: Forced swim test (FST), acute treatment; format: in vivo, mouse; settings: pBBG 50 mg/kg i.p., two hours later; C57BL/6J, FVB/nJ and BALB/cJ mice
Method: The forced swim test (FST) is a highly reliable screen used to predict antidepressant efficacy after acute antidepressant treatments (Petit-Demouliere, Chenu & Bourin 2005). The FST relies on the phenomenon that relative to no treatment, mice receiving treatment with antidepressants will spend more time performing escape-oriented behaviors than immobile postures. […] Mice on three genetic backgrounds (C57BL/6J, FVB/nJ and BALB/cJ) were treated with 50 mg/kg pBBG (i.p.) and assessed depression-like behavior in the FST two hours later.

purified human GLO1 = purified human GLO1 (Homo sapiens, UniProt Q04760); assay: GLO1 enzymatic activity assay with purified protein; format: biochemical; settings: 100 μM BrBzGCp2, 10 ng purified GLO1
Chain of purified human GLO1 (Q04760 whole entry): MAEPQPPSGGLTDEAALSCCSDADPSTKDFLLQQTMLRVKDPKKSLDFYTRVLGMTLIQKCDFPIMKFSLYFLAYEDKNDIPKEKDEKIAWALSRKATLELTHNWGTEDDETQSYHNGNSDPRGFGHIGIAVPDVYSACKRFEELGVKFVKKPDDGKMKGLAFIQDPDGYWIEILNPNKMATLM
Method: GLO1 activity was assayed by measuring the rate of formation of S-d-lactoylglutathione (Allen 1993).
Purified protein: 100 ng of purified protein was added to a hemithioacetal substrate, and enzymatic activity was measure as described above.
Enzymatic activity: Vehicle (DMSO) or 100 μM BrBzGCp2 was added to 10 ng of purified human GLO1. Enzymatic activity was measured as described above.

mice [8] = assay: Signs of toxicity after chronic administration; format: in vivo; settings: chronic pBBG by osmotic minipump
Method: (A) Chronic (14 day) treatment by osmotic minipump with 5 or 10 mg/kg/day pBBG reduced immobility in the FST, establishing that chronic administration has antidepressant effects.

[9] = BrBzGCp2 30 mg/kg i.p., B6 mice, two hours post-injection

T1 sequence (Q9CPU0 2-184 limits assumed): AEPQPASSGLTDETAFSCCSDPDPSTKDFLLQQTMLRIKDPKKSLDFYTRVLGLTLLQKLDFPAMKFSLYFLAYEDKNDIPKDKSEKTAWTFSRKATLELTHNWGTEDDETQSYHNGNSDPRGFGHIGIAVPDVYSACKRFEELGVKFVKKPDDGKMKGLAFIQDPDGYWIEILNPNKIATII

SMILES: N[C@@H](CCC(=O)N[C@@H](CSCc1ccc(Br)cc1)C(=O)NCC(=O)OC1CCCC1)C(=O)OC1CCCC1 [BrBzGCp2, S-bromobenzylglutathione cyclopentyl diester]
- increase of MG concentration in the brain (GLO1): approximately 20%
- immobility in the FST compared with fluoxetine ([1]; pBBG 5 mg/kg/day): reduced immobility in the FST to a similar extent as a selective serotonin reuptake inhibitor
- immobility in the FST after chronic treatment ([1]; pBBG 5 or 10 mg/kg/day): reduce immobility in the FST
- immobility in the FST after chronic treatment ([1]; pBBG 30, 60 mg/kg/day): increased immobility in the FST
- total distance traveled in the OFT ([2]; pBBG 5, 10, or 15 mg/kg/day): had no effect on total distance traveled in the OFT
- total distance traveled in the OFT ([2]; pBBG 15, 30 or 60 mg/kg/day): also had no effect on total distance traveled
- sedation or gross deficits (mice [3]): did not display sedation or gross deficits
- seizure stage ([4]; BrBzGCp2 50 mg/kg i.p. two hours before pilocarpine): did not affect seizure stage
- seizure duration (time in stage 3) ([4]; BrBzGCp2 50 mg/kg i.p. two hours before pilocarpine 250 mg/kg): reduced seizure durations
- seizure latency ([4]; BrBzGCp2 50 mg/kg i.p. two hours before pilocarpine, data not shown): did not significantly affect seizure latency
- center time in the OF test [5, 9]: increased center time in the OF test
- distance traveled in the OF test [5, 9]: without changing distance traveled
- anxiogenic effect of the Glo1 duplication in the OF ([5]; BrBzGCp2 50 mg/kg i.p., CD-1 mice with Glo1 duplication): reversed this effect
- center time in the OF ([5]; BrBzGCp2 50 mg/kg i.p., CD-1 mice, two hours post-injection): increased center time in the OF
- immobility on the TST ([6]; C57BL/6J (B6) mice): decreased immobility on the TST
- immobility on the TST ([6]; FVB/NJ mice): decreased immobility on the TST
- immobility in the FST [7]: reduced immobility in all strains
- GLO1 enzymatic activity (purified human GLO1): inhibit GLO1 enzymatic activity in vitro
- signs of toxicity following chronic administration (mice [8]): none were observed

— patent US11235020B2, “Methods and compositions for inhibiting glyoxalase 1 (GLO1)” (priority 2013, dated 2022)
